Results as given in ChEMBL document CHEMBL4342498, “Design and Discovery of an Orally Efficacious Spiroindolinone-Based Tankyrase Inhibitor for the Treatment of Colon Cancer” (J Med Chem, 2020).
Active and inactive are the calls of the source. No cut-off for these calls is given here.

Tests used:
[1] = Efflux ratio of permeability across basolateral to apical side over apical to basolateral side in MDCK2 cells; assay type: ADME, cell-based, Canis lupus familiaris, MDCK-II; settings: dog, mdck
[2] = target: T1, Poly [ADP-ribose] polymerase tankyrase-2 (Homo sapiens, UniProt Q9H2K2); assay: Inhibition of recombinant human N-terminal TEV cleavage site-fused/FLAG-poly his-tagged TNKS2 ARC5-SAM-PARP domain (613 to 1166 residues) expressed in Escherichia coli assessed as reduction in auto-PARylation preincubated for 10 mins followed by biotinylated-NAD+ addition and measured after 45 mins by ELISA
T1 sequence (Q9H2K2 whole entry): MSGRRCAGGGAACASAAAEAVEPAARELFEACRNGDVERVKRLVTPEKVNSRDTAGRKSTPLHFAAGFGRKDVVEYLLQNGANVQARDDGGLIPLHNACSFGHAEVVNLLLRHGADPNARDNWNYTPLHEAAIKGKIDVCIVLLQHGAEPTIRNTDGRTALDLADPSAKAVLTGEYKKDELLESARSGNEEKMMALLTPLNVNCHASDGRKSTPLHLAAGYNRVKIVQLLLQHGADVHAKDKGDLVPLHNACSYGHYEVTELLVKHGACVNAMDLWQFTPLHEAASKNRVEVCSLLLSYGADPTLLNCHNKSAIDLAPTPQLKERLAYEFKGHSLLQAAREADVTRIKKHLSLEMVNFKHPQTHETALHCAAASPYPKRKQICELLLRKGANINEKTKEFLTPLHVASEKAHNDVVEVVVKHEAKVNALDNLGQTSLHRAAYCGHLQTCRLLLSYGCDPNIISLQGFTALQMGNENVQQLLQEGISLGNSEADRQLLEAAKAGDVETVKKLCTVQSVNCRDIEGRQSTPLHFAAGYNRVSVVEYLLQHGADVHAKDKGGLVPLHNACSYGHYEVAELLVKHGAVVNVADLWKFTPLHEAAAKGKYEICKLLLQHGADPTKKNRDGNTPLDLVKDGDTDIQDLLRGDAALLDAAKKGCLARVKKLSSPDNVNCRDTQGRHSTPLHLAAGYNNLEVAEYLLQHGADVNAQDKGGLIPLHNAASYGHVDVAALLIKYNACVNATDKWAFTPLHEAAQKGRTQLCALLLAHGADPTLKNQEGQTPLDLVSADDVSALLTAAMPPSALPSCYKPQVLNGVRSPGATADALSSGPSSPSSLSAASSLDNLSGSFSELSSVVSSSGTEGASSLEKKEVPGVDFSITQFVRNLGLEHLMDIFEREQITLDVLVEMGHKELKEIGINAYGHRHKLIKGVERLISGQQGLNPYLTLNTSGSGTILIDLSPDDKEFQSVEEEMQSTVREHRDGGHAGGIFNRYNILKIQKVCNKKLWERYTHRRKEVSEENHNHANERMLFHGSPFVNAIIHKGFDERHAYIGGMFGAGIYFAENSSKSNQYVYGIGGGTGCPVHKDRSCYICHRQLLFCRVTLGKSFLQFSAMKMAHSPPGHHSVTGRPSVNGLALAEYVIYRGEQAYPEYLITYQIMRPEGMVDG

[3] = Permeability of the compound measured after 4 hrs by PAMPA; assay type: ADME; settings: read-out: permeability
[4] = Stability in rat liver microsomes assessed as parent compound remaining at 1 uM measured after 30 mins in presence of NADPH by LC-MS/MS analysis; assay type: ADME, Microsome; settings: read-out: Stability
[5] = Protein binding in mouse plasma assessed as unbound fraction at 1 uM measured after 24 hrs by LC-MS/MS analysis; assay type: ADME, cell-free
[6] = AUC (infinity) in ICR mouse at 50 mg/kg, ip; assay type: ADME, organism-based; set-up: dose 50 mg/kg, route intraperitoneal, time infinity; settings: in vivo
[7] = Stability in rat liver microsomes assessed as parent compound remaining at 1 uM measured after 60 mins in presence of NADPH by LC-MS/MS analysis; assay type: ADME, Microsome; settings: read-out: Stability
[8] = Net efflux ratio of permeability across basolateral to apical side over apical to basolateral side in MDCK2-MDR1 cells to MDCK2 cells; assay type: ADME, cell-based, Canis lupus familiaris; settings: dog, mdck
[9] = system: COLO 320DM; assay: Antiproliferative activity against human COLO320DM cells assessed as inhibition of cell growth measured after 4 days by CellTiter-Glo assay; assay type: functional; settings: 96 h
[10] = system: MDR1; assay: Efflux ratio of permeability across basolateral to apical side over apical to basolateral side in MDCK2-MDR1 cells; assay type: ADME, cell-based, Canis lupus familiaris; settings: dog, MDCK-MDR1
[11] = Stability in human liver microsomes assessed as parent compound remaining at 1 uM measured after 30 mins in presence of NADPH by LC-MS/MS analysis; assay type: ADME, Microsome; settings: read-out: Stability
[12] = Tmax in ICR mouse at 50 mg/kg, po; assay type: ADME, organism-based; settings: in vivo
[13] = organism: Homo sapiens
[14] = Tmax in ICR mouse at 20 mg/kg, ip; assay type: ADME, organism-based; settings: in vivo
[15] = Cmax in ICR mouse at 20 mg/kg, po; assay type: ADME, organism-based; set-up: dose 20 mg/kg, route oral; settings: in vivo
[16] = AUC (infinity) in ICR mouse at 20 mg/kg, ip; assay type: ADME, organism-based; set-up: dose 20 mg/kg, route intraperitoneal, time infinity; settings: in vivo
[17] = target: Tankyrase 1/2 (Homo sapiens) (UniProt Q9H2K2+O95271); assay: Inhibition of TNKS/TNKS2-mediated WNT/beta-catenin signaling pathway in human COLO320DM cells assessed as upregulation of AXIN2 expression at 0.1 uM measured after 16 hrs by Western blot analysis relative to control; assay type: cell-based
[18] = system: COLO 320DM; assay: Antitumor activity against human COLO320DM cells xenografted in Prkdc-NOD-SCID CB17 mouse assessed as tumor growth inhibition at 10 mg/kg, po administered twice daily for 5 days followed by 2 days interval for 2 cycles relative to control; assay type: functional; settings: read-out: TGI
[19] = system: COLO 320DM; assay: Antitumor activity against human COLO320DM cells xenografted in Prkdc-NOD-SCID CB17 mouse assessed as tumor growth inhibition at 20 mg/kg, po administered twice daily for 5 days followed by 2 days interval for 2 cycles relative to control; assay type: functional; settings: read-out: TGI
[20] = Toxicity in human COLO320DM cells xenografted Prkdc-NOD-SCID CB17 mouse assessed as behavioral changes at 50 mg/kg, ip administered twice daily for 5 days followed by 2 days interval for 2 cycles; settings: in vivo
[21] = system: Mus musculus; assay: In vivo inhibition of TNSK/TNSK2-medited WNT/beta-catenin signaling in human COLO320DM cells xenografted Prkdc-NOD-SCID CB17 mouse assessed as reduction in total beta catenin expression in tumor nuclear extract at 10 to 20 mg/kg, po administered twice daily for 5 days followed by 2 days interval for 2 cycles measured 4 hrs post-last dose by Western blot analysis; assay type: functional, organism-based

Tankyrase 1/2 (Homo sapiens), sequence (O95271 whole entry, looked up, one chain of several): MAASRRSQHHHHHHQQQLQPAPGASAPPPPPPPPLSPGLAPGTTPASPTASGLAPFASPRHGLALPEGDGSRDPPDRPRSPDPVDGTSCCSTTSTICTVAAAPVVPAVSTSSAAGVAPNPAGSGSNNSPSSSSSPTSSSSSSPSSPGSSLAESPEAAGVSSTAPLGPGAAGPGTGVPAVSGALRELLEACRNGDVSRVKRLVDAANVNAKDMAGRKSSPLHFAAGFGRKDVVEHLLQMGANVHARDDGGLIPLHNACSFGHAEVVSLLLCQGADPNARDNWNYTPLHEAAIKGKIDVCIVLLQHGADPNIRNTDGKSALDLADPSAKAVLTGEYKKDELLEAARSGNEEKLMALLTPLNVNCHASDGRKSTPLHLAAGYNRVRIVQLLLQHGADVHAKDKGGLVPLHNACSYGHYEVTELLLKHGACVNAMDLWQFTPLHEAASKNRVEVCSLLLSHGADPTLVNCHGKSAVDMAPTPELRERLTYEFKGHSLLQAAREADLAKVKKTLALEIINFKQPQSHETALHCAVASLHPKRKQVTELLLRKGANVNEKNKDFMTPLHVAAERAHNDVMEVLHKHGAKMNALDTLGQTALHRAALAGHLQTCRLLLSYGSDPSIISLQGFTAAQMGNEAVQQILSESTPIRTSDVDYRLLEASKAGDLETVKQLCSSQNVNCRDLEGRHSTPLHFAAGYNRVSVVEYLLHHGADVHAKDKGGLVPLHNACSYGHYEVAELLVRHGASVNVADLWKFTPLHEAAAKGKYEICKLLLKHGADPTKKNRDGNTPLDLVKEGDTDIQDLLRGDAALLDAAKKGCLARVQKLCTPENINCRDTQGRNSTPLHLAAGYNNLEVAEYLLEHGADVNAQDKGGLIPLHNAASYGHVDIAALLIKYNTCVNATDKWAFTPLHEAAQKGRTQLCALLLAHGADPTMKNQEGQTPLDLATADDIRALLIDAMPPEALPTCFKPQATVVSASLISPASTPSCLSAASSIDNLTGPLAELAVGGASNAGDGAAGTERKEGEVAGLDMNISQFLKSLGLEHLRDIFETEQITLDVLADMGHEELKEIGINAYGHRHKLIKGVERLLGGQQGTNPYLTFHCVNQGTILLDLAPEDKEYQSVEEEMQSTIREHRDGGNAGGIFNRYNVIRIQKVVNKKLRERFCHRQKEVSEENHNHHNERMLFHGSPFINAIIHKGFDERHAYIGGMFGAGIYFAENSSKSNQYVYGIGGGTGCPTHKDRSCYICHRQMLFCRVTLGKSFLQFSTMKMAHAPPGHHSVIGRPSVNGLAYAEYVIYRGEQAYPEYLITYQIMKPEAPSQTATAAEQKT

Row | Structure (SMILES) | efflux ratio [1] | IC50 [2] [nM] | Papp at 4 h [3] [×10⁻⁶ cm/s] | remaining at 0.5 h, 1 µM [4] [%] | fraction unbound at 24 h, 1 µM [5] | AUC(0-inf) [6] [µM·h] | remaining at 1 h, 1 µM [7] [%] | Ratio [8] | GI50 [9] [nM] | efflux ratio [10] | remaining at 0.5 h, 1 µM [11] [%] | Tmax [12] [h] | further results
1 | CN1CCN(c2cc(F)c3c(c2)N(C)C(=O)C32CCN(c3nc4c(c(=O)[nH]3)CCCN4C)CC2)CC1 | 3.1 | 12.3 | 12.8 | 80.2 | 0.019 | 207 | 65.3 | 4.3 | 190 | 13.2 | 72.7 | 0.25 | –
2 | C[C@@H]1CN(c2cc(F)c3c(c2)N(C)C(=O)C32CCN(c3nc4c(c(=O)[nH]3)CCCN4C)CC2)C[C@H](C)O1 | 0.9 | 39.2 | 12.4 | 57.3 | 0.006 | 607 | 44 | 1.1 | 230 | 1 | 73 | 1 | Ratio IC50 [13]: 34; Tmax [14]: 1 h; Cmax [15]: 76.6 µM; AUC(0-inf) [16]: 266 µM·h; fold change (FC) [17]: 5.23; inhibition in vivo at 10 mg/kg [18]: 52.3%; inhibition in vivo at 20 mg/kg [19]: 52%; Activity [20]: Toxic; inhibition [21]: Active
